{
  "source": "patent US12146185B2",
  "about": "“Genetic markers for enhancing efficacy of antipsychotic treatment with iloperidone” (Vanda Pharmaceuticals Inc., priority 2018, dated 2024)",
  "test_system": "schizophrenia patients",
  "test": "Genome-wide association study of iloperidone efficacy (PANSS-T) in a randomized, double-blind, placebo- and ziprasidone-controlled 28-day study",
  "type": "in vivo, human",
  "conditions": "for Genotype associated with lower treatment effect: PANSS-T",
  "experimental": "A genome-wide association study (GWAS) is performed to improve understanding of the pharmacogenomic basis of response to iloperidone treatment of schizophrenia patients. In the GWAS, genotypes of 205 patients are utilized to evaluate treatment with iloperidone. Linear regression is used to directly test the association between single nucleotide polymorphisms (SNPs) and PANSS-T (day 28), correcting for essential covariates including principal components.\nPatients 18-65 years of age with diagnoses of schizophrenia according to the Diagnostic and Statistical Manual of Mental Disorders, 4th Edition are eligible to participate in a randomized, double-blind, placebo- and ziprasidione-controlled, 28-day study of the efficacy and safety of iloperidone. Patients are randomly assigned to iloperidone 12 mg bid, ziprasidone 80 mg bid (active control), or placebo. The primary efficacy variable is change from baseline to the last scheduled observation in PANSS-T using the data from the short-term, double-blind phase. A secondary objective is to identify genetic markers predictive of response to iloperidone. Blood samples are collected, and DNA is extracted from patients who consented to the optional GWAS.\nThree analyses of the PANSS-T are conducted: 1) A two-step approach where samples are randomly split into 2 groups of iloperidone-treated patients used to discover SNPs associated with change in PANSS-T (Discovery phase) and a second group to confirm the 100 most significant SNPs (Confirmatory phase). 2) A one-step approach using the Last Observation Carried Forward (LOCF) PANSS-T data of all iloperidone-treated patients. For each SNP, the most parsimonious genetic model (e.g., homozygous for one allele v. all other genotypes [i.e., AA v. AB and BB], heterozygous v. homozygous [i.e., AB v. AA and BB]) was established with respect to iloperidone efficacy using a one-way analysis of variance (ANOVA). 3) A Mixed-effects Model Repeated Measures (MMRM) analysis was subsequently conducted using the best genetic model of each SNP in the MMRM model. MMRM analyses were also conducted with the PANSS subscales PANSS-P, PANSS-N, and PANSS-GP.\nThe SNPs with a statistically significant association in all 3 analyses of PANSS-T, as well as the best of each analysis are considered significant findings and are listed below in Table 3.\nA logistic regression is conducted based on binary cutoffs at PANSS-T≥30 and on the top ends of the distribution logistic model, splitting the data set into two groups: robust responders (i.e., responders having PANSS_T change≥30) and weak responders (i.e., responders having PANSS-T change<20). A significant GRM8 signal is observed in allelic tests conducted, that is, linear association is observed with PANSS-T day 28, logistic model with tot change>=30 vs weak (<20) and logistic association with high and low PANSS-T.",
  "data": [
    {"smiles": "COc1cc(C(C)=O)ccc1OCCCN1CCC(c2noc3cc(F)ccc23)CC1", "note": "[iloperidone, 1-[4-[3-[4-(6-fluoro-1,2-benzisoxazol-3-yl)-1-piperidinyl]propoxy]-3-methoxyphenyl]ethanone]", "values": [
      {"measurement": "Genotype associated with lower treatment effect", "setting": "GRIP1 rs11176436", "result": "nonTT"},
      {"measurement": "Genotype associated with lower treatment effect", "setting": "GRM8 rs2299503", "result": "nonAA"},
      {"measurement": "Genotype associated with lower treatment effect", "setting": "GRM8 rs11763603", "result": "nonCC"},
      {"measurement": "Genotype associated with lower treatment effect", "setting": "GRM8 rs13222700", "result": "nonTT"},
      {"measurement": "Genotype associated with lower treatment effect", "setting": "NRXN3 rs17109739", "result": "nonCC"},
      {"measurement": "Genotype associated with lower treatment effect", "setting": "NTRK2 rs7049108", "result": "nonGG"},
      {"measurement": "Genotype associated with lower treatment effect", "setting": "SHANK2 rs579298", "result": "nonTT"},
      {"measurement": "iloperidone treatment effect as measured by PANSS-T by rs13222700 genotype", "setting": "TT (homozygous minor allele) vs GT or GG, iloperidone 12 mg bid, PANSS-T day 28, FIG. 1", "result": "significantly higher treatment effect"},
      {"measurement": "iloperidone treatment effect as measured by PANSS-T change by rs13222700 genotype", "setting": "TT vs GT or GG, iloperidone 12 mg bid, FIG. 3", "result": "significantly larger change in PANSS-T score"},
      {"measurement": "P of association of GRM8 variant rs13222700 with iloperidone efficacy", "setting": "top locus of association analyses, chromosome 7", "result": "< 1×10^−5"}
    ]}
  ]
}
